The text below walks through data of patent publication US5620985A, “Antimitotic binary alkaloid derivatives from catharanthus roseus” (Pierre Fabre Medicament, priority 1993, dated 1997).

Broadly, the inhibition is the share of the control response that was lost under treatment.

Assay [1] concerns MCF-7. The assay can be described thus: MTT cytotoxicity test, MCF-7 (growth inhibition). It counts as cell-based. The note with it: Homo sapiens, MCF7; 1 μg/ml; MCF-7 (breast); relative to the controls; read-out: Percentage inhibition of growth MCF-7. On the procedure:
(§1) Thus, the cytotoxic activity of the products was evaluated using the MTT test [T. Mosman, J. Immunol. […] The amount of formazan formed (and consequently the intensity of the color obtained) is directly proportional to the number of living cells present in the culture medium at the time of the test. The lines used are of human origin, and are marketed by the American Type Cell Collection (ATCC), the reference body for the supply of standardized strains.
(§2) The experimental procedure used is essentially that described by C.
(§3) The results are expressed in the form of a percentage inhibition of growth relative to the controls.
On the technique in general: Tetrazolium dyes change colour on reduction, which living cells bring about.

The test system of assay [2] is T47D. The assay can be described thus: MTT cytotoxicity test, T47D (growth inhibition). Format: cell-based. The note with it: Homo sapiens; 1 μg/ml; T47D (breast); relative to the controls; read-out: Percentage inhibition of growth T47. As to the method:
as §1, §2, §3

Assay [3] deals with J82. Nature of the assay: MTT cytotoxicity test, J82 (growth inhibition). Format: cell-based. The note with it: Homo sapiens; 1 μg/ml; J82 (bladder); relative to the controls; read-out: Percentage inhibition of growth J82. As to the method:
as §1, §2, §3

Assay [4] has as its system T24. The assay can be described thus: MTT cytotoxicity test, T24 (growth inhibition). It counts as cell-based. The note with it: Homo sapiens, T-24; 1 μg/ml; T24 (bladder); relative to the controls; read-out: Percentage inhibition of growth T24. As to the method:
as §1, §2, §3

Assay [5] concerns MXT adenocarcinoma. Nature of the assay: in vivo test on MXT adenocarcinoma grafted in B6D2F1 mice. The note with it: for activity on the MXT model: in words, MXT adenocarcinoma model. The source says: The antitumor properties of the products of the invention were confirmed by in vivo tests, in particular on the model of mammalian MXT adenocarcinoma,which is a solid tumor that is particularly insensitive to anticancer agents [C. S. Watson, D. Medina, J. H. Clark, Cancer Res., 37, 3344 (1977); W. T. Bradher and C. A. Claridge, "Antineoplastic Agents", Wiley-Interscience (1984); T. W. Redding and A. V. Schally, Proc. Natl. Acad. Sci. U.S.A., 80, 1459 (1983)].
In this model, mice of type B6D2F1 are grafted by injection (subcutaneous) of a tumor fragment of about 10 mm^3 originating from an MXT tumor. The test products are administered via the i.p. route starting from the 17th day after the graft.

Assay [6] has as its system tubulin. The assay can be described thus: inhibition of polymerization of tubulin into microtubules (Weisenberg). Format: biochemical. The note with it: variations in optical density; read-out: IC50 (concentration which causes 50% inhibition of the polymerization). The source says: This property was confirmed by measuring the inhibition of polymerization of tubulin into microtubules in the presence of the compounds of the invention, according to the method described by R. C. Weisenberg (Science 177, 1196-7, 1972). The results are expressed as a concentration of product which causes 50% inhibition of the polymerization. This phenomenon is readily monitored and quantified via the variations in optical density.

In the case of `CCC1=C[C@@H]2CN(C1)Cc1c([nH]c3ccccc13)[C@@](C(=O)OC)(c1cc3c(cc1OC)N(C)[C@H]1[C@@](O)(C(=O)OC)[C@H](OC(C)=O)[C@]4(CC)C=CCN5CC[C@]31[C@@H]54)C2` [VINORELBINE, vinorelbine, reference compound], the inhibition at 1 µg/mL in assay [1] stood at 50%; in assay [2], 16%; in assay [3], 14%; in assay [4], 62%. Also, in assay [5], the “activity on the MXT model” value was “devoid of activity”.
In the case of `CC[C@]12C=CCN3CC[C@@]4(c5cc([C@@]6(C(=O)OC)C[C@@H]7CC(C(C)(F)F)CN(CCc8c6[nH]c6ccccc86)C7)c(OC)cc5N(C)[C@H]4[C@@](O)(C(=O)OC)[C@@H]1OC(C)=O)[C@@H]32` (stereo partly drawn) [Example 5, 20'-deoxy 19',19'-difluorovinblastine], the inhibition at 1 µg/mL in assay [1] stood at 36%; in assay [2], 27%; in assay [3], 15%; in assay [4], 50%. In addition, the IC50 in assay [6] was found to be 8900 nM.
With `CC[C@]12C=CCN3CC[C@@]4(c5cc([C@@]6(C(=O)OC)C[C@@H]7CC(C(C)(F)F)CN(CCc8c6[nH]c6ccccc86)C7)c(OC)cc5N(C)[C@H]4[C@@](O)(C(=O)OC)[C@@H]1O)[C@@H]32` (stereo partly drawn) [Example 12, 17-deacetyl 20'-deoxy 19',19'-difluorovinblastine], the inhibition at 1 µg/mL is 36% in assay [1], 27% in assay [2], 0% in assay [3] and 72% in assay [4]. In addition, the IC50 in assay [6] stood at 4200 nM.
As for `CC[C@]12C=CCN3CC[C@@]4(c5cc([C@@]6(C(=O)OC)C[C@@H]7CC(C(C)(F)F)CN(Cc8c6[nH]c6ccccc86)C7)c(OC)cc5N(C)[C@H]4[C@@](O)(C(=O)OC)[C@@H]1OC(C)=O)[C@@H]32` (stereo partly drawn) [Example 1, 19',19'-difluoro 15',20'-dihydrovinorelbine], the inhibition at 1 µg/mL in assay [1] was determined as 68%; in assay [2], 44%; in assay [3], 45%; in assay [4], 70%. Besides, in assay [6], the IC50 worked out at 2500 nM. For the same compound, in assay [5] (9×40 mg/kg, i.p., starting from the 17th day after the graft), the “reduction in tumor size relative to the untreated controls” value is given as 40%.
On to `CC[C@]1(O)C[C@@H]2CN(CCc3c([nH]c4ccccc34)[C@@](C(=O)OC)(c3cc4c(cc3OC)N(C)[C@H]3[C@@](O)(C(=O)OC)[C@H](OC(C)=O)[C@]5(CC)C=CCN6CC[C@]43[C@@H]65)C2)C1` [VINBLASTINE, vinblastine, reference compound], for which, in assay [6], the IC50 is […]. Moreover, the “activity on the MXT model” value in assay [5] was “devoid of activity”.
On to `CC[C@]1(O)C[C@@H]2CN(CCc3c([nH]c4ccccc34)[C@@](C(=O)OC)(c3cc4c(cc3OC)N(C=O)[C@H]3[C@@](O)(C(=O)OC)[C@H](OC(C)=O)[C@]5(CC)C=CCN6CC[C@]43[C@@H]65)C2)C1` [vincristine], for which, in assay [5], the “activity on the MXT model” value was “devoid of activity”.
`CC[C@]1(O)C[C@@H]2CN(CCc3c([nH]c4ccccc34)[C@@](C(=O)OC)(c3cc4c(cc3OC)N(C)[C@H]3[C@@](O)(C(N)=O)[C@H](O)[C@]5(CC)C=CCN6CC[C@]43[C@@H]65)C2)C1` [vindesine]: in assay [5], the “activity on the MXT model” value was “devoid of activity”.
With `CC[C@]12C=CCN3CC[C@@]4(c5cc([C@@]6(C(=O)OC)C[C@@H]7CC(C(C)(F)F)CN(Cc8c6[nH]c6ccccc86)C7)c(OC)cc5N(C)[C@H]4[C@@](O)(C(=O)OC)[C@@H]1O)[C@@H]32` (stereo partly drawn) [Example 11, 17-deacetyl 19',19'-difluoro 15',20'-dihydrovinorelbine], the inhibition at 1 µg/mL came to 45% in assay [1], 30% in assay [2], 60% in assay [3] and 51% in assay [4]. Moreover, in assay [6], the IC50 turned out to be 2900 nM.
